# Reference: the COVID Moonshot data (paper PMC11187573), “Identification of SARS-CoV-2 Mpro inhibitors through deep reinforcement learning for de novo drug design and computational chemistry approaches” (RSC Medicinal Chemistry, 2024)
# Key:
# [1] = biological target: SARS-CoV-2 Main Protease (SARS-CoV-2) (UniProt P0DTD1)
# [2] = biological target: SARS-CoV-2 Main Protease (SARS-CoV-2) (UniProt P0DTD1); remark: listed apart in the source
SMILES,relative solubility at 20 uM,relative solubility at 100 uM,inhibition ([1]; 20.0 µM) [%],inhibition ([1]; 50.0 µM) [%],inhibition ([2]; 50.0 µM) [%],inhibition ([2]; 20.0 µM) [%],IC50 [2] [nM]
CC(=O)N[C@@H](C)C(=O)Nc1cnccc1C (stereo in doubt),1,1,-12.3,-7.91,-0.127,,
O=C(Nc1cnccc1Cl)c1cc(Cl)ccc1O,1,0.98,66.8,75.2,65.9,15.5,
CS(=O)(=O)Nc1cccc(C(=O)Oc2cccc(N3CCCC3=O)c2)c1,0.99,0.86,,35.7,11.2,0,
C=CC(=O)N(c1ccc(C(C)(C)C)cc1)C(C(=O)NCCOC)c1cccnc1 (configuration not stated),1,1,35.7,52.7,70.3,25.7,
O=C(NCC(O)Cn1ccnn1)c1ccccc1OC1CCC1 (configuration not stated),1,1,-1.11,2.04,0,0,
O=C(NC(Cc1ccccc1)C(=O)NCc1ccno1)OCc1ccccc1 (configuration not stated),0.98,0.85,,50.6,0,0,
CC(C)NC1CCN(c2ccc(S(N)(=O)=O)cc2)CC1,1,0.98,-1.27,-1.56,0.505,0.29,
Cc1cccc(C)c1OCC(=O)N[C@@H](Cc1ccccc1)[C@@H](O)C[C@H](Cc1ccccc1)NC(=O)[C@H](C(C)C)N1CCCNC1=O (stereo in doubt),0.83,0.53,7.22,13,,0,
COCCc1ccc(Cl)cc1CN1CCN(C(=O)CCl)CC1,1,0.99,96.1,95.1,100,,2420
C=CC(=O)N(c1ccc(C(C)(C)C)cc1)C(C(=O)NCCc1cccc(F)c1)c1cccnc1 (configuration not stated),0.98,0.55,63.3,83.4,100,91.8,3360
C=CC(=O)N(c1ccc(C(C)(C)C)cc1)C(C(=O)NCC1CCOC1)c1cccnc1 (configuration not stated),1,0.99,25.7,41.3,29.4,1.1,
O=S(=O)(Cc1ccccc1)Nc1cnccc1N1CCCC1,0.99,0.98,1.48,1.38,0,,
CCCSCC(=O)C(C#N)C(=O)Nc1ccc(F)cc1F (configuration not stated),1.01,1.01,,21.8,3.54,3.06,
NC1=Nc2nc3ccccc3n2C(c2ccc(-c3nc4ccccc4s3)o2)N1 (configuration not stated),0.53,0.23,-25.2,-3.34,38.8,,
O=C1CC[C@@H](C(=O)Nc2cccc(Cl)c2)CN1 (stereo in doubt),1,1,-24,-3.68,-12,,
O=C1CC[C@H](C(=O)Nc2cccc(Br)c2)N1 (stereo in doubt),1,1,15,5.83,0,,
O=C(CC1(c2ccccc2)CCCC1)Nc1cccnc1,1,1,,3.98,13.9,0,
C=CC(=O)N(c1ccc(C(C)(C)C)cc1)C(C(=O)Nc1c(C)cccc1CC)c1cccnc1 (configuration not stated),0.98,0.69,,-3.74,0,0,
CCN(Cc1cccc(-c2ccncc2)c1)C(=O)Cc1noc2ccccc12,0.98,0.85,-25.4,-15.8,,0,

SMILES,relative solubility at 20 uM,relative solubility at 100 uM,inhibition ([1]; 20.0 µM) [%],inhibition ([1]; 50.0 µM) [%],inhibition ([2]; 50.0 µM) [%],inhibition ([2]; 20.0 µM) [%],IC50 [2] [nM]
Cc1ccncc1NC(=O)CCc1ccc(F)cc1,1,1,1.95,5.92,6.51,,
NS(=O)(=O)c1ccc2c(c1)CN(CC1CCN(C(=O)CCl)CC1)CC2,1,1,30.8,60.3,91.1,,31200
COc1ccc2c(c1)CN(C(=O)CCl)C(c1ccccc1)C2 (configuration not stated),0.98,0.96,97.4,97.5,100,,1780
O=C(NCc1ccno1)c1ccccc1OC1CCCCC1,1,1,4.09,5.82,,0,
CN(C(=O)C1CCOc2ccc(Cl)cc21)c1ccc(Cl)cn1 (configuration not stated),0.99,0.98,0.542,9.88,0,,
Cc1cccc(C2CN(C(=O)CCl)Cc3ccccc32)c1 (configuration not stated),1,0.93,98.1,99.7,53.8,,420
O=C(Cn1cccn1)N1CCN(S(=O)(=O)c2cccc(F)c2)CC1,1,1,-11.9,1,,0,
O=C(Cc1ccc(F)cc1)Nc1cccc2cc[nH]c12,1,0.88,-2.43,-33.9,0,,
Cc1ccncc1NC(=O)Cn1ccc2ccc(Cl)cc21,0.99,0.98,30.6,27,77.4,,20000
Cn1cnnc1NC(=O)Cc1cccc(Cl)c1F,0.98,0.99,5.1,-1.13,-13.1,,
CN(C)C/C=C/C(=O)NCc1c[nH]c2ccccc12,0.96,0.98,3.86,0.744,,0,
Cc1ncncc1NC(=O)C(c1cccc(Cl)c1)C(C)C (configuration not stated),1,0.99,3.52,20.6,46.5,,
CCC(=O)O[C@@H](OP(=O)(CCCCc1ccccc1)CC(=O)N1C[C@H](C2CCCCC2)C[C@H]1C(=O)O)C(C)C (stereo in doubt),1,0.92,4.91,-0.253,,3.17,
CNC(=O)OC1CCN(S(=O)(=O)c2ccccc2)CC1,1,1,,-16.3,0,4.89,
Cc1ccncc1NC(=O)Nc1cncc(C#N)c1,1,1,3.67,3.96,15.5,,
C=CC(=O)N(c1ccc(C(F)(F)F)cc1)C(C(=O)Nc1ccccc1Br)c1cccnc1 (configuration not stated),0.94,0.83,15.6,22,,9.6,
O=C(CCl)N1CCOc2cccc(-c3cccnc3)c21,1,1,1.76,7.44,-5.89,,
C[C@H](NC(=O)[C@@H](C)c1ccc(F)c(F)c1)c1cccc(F)c1 (stereo in doubt),1,0.79,,-31.4,0,0,
Cc1noc(CC(NC(=O)C(C)Cn2ccnc2)c2ccccc2)n1 (configuration not stated),1,1,,-2.38,0,0,
